Reference: patent US20080275110A1, “Sesamin/Episesamin Compositions” (priority 2004, published 2008)

Tests used:
[1] = Oral absorption of episesamin and its transfer into blood circulation (I), LC-MS/MS of plasma; parameters: species or system SD (IGS) male rats; settings: male, SD (IGS), rat, in vivo, 10 mg/kg
Method: (§1) SD (IGS) male rats (6-wk old) were purchased from CHARLES RIVER JAPAN INC. and habituated in the test environment for a week; the animals that were seen to grow normally were subjected to the test. The rats fasted overnight were divided into six groups each consisting of 5 heads; the high purity sesamin and episesamin obtained in Example 1 were incorporated at varying weight ratios of 6:4, 5:5, 4:6, 3:7, 1:9 and 0:10 to prepare sesamin/episesamin mixtures, which were dissolved in olive oil at a dose of 10 mg/kg and administered perorally to the rats via a feeding tube. […] After adding an internal standard, solid-phase extraction was performed with Oassis HLB and the liquid extract was concentrated under vacuum, suspended in methanol, passed through a filter, and subjected to LC-MS/MS for quantification of sesamin and episesamin. The quantity of sesamin or episesamin was determined from the ratio between the peak area of sesamin or episesamin and that of UDESMIN (Funakoshi Co, Ltd.) used as the internal standard. […]
The concentration of episesamin in blood peaked in about 6 hours after the administration, then decreased gradually until it became almost undetectable in 24 hours. From the blood concentration curve for 0-24 hours, the area under the curve (AUC) was determined as an index of absorbed quantity. […]

[2] = Oral absorption of episesamin and its transfer into blood circulation (II), lowered sesamin ratios; parameters: species or system rats; settings: male, SD (IGS), rat, in vivo, 10 mg/kg
Method: as §1
With a view to prescribing effective mixing ratios of sesamin, the action of further lowered ratios of sesamin was evaluated in accordance with the method of Example 2. […]

[3] = test system: Deoxycorticosterone Acetate-Salt (DOCA-Salt) Induced Hypertension Model Rats; test: Blood pressure lowering action in DOCA-salt induced hypertension model rats (tail-cuff SBP); format: in vivo, SD male rats; settings: 100 mg/kg single oral; for changes in blood pressure for 24 hours after the single administration: Example 4, FIG. 3, n=5-7; for changes in blood pressure 8 hours after the administration: Example 4, FIG. 4
Method: SD male rats (6-wk old) (purchased from Japan SLC, Inc.) were subjected to surgery for removing the right kidney under anesthetization with Nembutal. After recuperation for a week, the rats were administered subcutaneously with DOCA-salt twice a week at a dose of 15 mg/kg, and allowed to drink 1% saline. The systolic blood pressure (SBP) of each animal was measured by a tail-cuff method with a non-invasive automatic blood pressure measuring apparatus (BP-98A, Softron, Tokyo). At 5 weeks after the start of treatment with DOCA-salt, blood pressure was measured and the animals in which adequate elevation of blood pressure was verified were used in the following experiment. Rats fasted for 8 hours were divided into a control group and three test groups. The control group was administered olive oil only. For the test groups, the high purity sesamin and episesamin obtained in Example 1 were incorporated at varying weight ratios of 10:0, 5:5 and 0:10 to prepare sesamin/episesamin mixtures, which were suspended in olive oil at a dose of 100 mg/kg. Single oral administration of olive oil or the suspension was effected via a feeding tube. Both before the administration and 2, 4, 6, 8, 10, 12 and 24 hours after the administration, SBP measurement was conducted. Diet was applied after the blood pressure measurement at 12 hours. Testing was conducted at 1-wk intervals and the same head was subjected to no more than three measurements.
Sesamin and episesamin were incorporated at varying weight ratios of 5:5, 3:7 and 1:9 to prepare sesamin/episesamin mixtures, which were dissolved in olive oil at a dose of 50 mg/kg. Single oral administration of the solution was effected via a feeding tube, and for blood pressure measurement was conducted.

β-oxidation genes = test: Effects on the expression of β-oxidation genes, quantitative RT-PCR; format: in vivo, Wistar male rats; settings: Example 6, FIGS. 6A/6B; 200 mg/kg peroral three times at 24-hr intervals, 4 hours after final administration
Method: Wistar male rats (6-wk old) were purchased from CLEA Japan, Inc. and habituated in the test environment for a week; the animals that were seen to grow normally were subjected to the test. The rats were divided into six groups each consisting of 5 heads. The control group was administered with olive oil only. For the test groups, the high purity sesamin and episesamin obtained in Example 1 were incorporated at varying weight ratios of 10:0, 5:5, 3:7, 1:9 and 0:10 to prepare sesamin/episesamin mixtures, which were suspended in olive oil at a dose of 200 mg/kg. The rats were administered perorally with olive oil or the suspension three times at 24-hr intervals. Four hours after the final administration, the kidney was removed from each rat under anesthetization with Nembutal; after extracting RNA, effects on the expression of 10 β-oxidation genes were investigated by quantitative RT-PCR using TaqMan chemistry (Heid C A, Stevens J, Livak K J, Williams P M, Real time quantitative PCR, Genome Res. 1996 6(10):986-94).
In contrast, each of the groups administered with the sesamin/episesamin mixture experienced more elevated gene expression than the group administered with episesamin alone. The effect of the mixing ratio was somewhat variable from one gene to another but no significant difference was found among the three groups administered with the sesamin/episesamin mixture.

[4] = test system: β-oxidation enzymes in the liver; settings: rats, separately administered orally; cited from earlier work
fatty acid synthases = settings: rats, separately administered orally; cited from earlier work
[5] = rat, in vivo, po; cited from earlier work

## c1cc2c(cc1[C@H]1OC[C@H]3[C@@H]1CO[C@H]3c1ccc3c(c1)OCO3)OCO2 [episesamin]
[1]
  percent absorption of episesamin (AUC 0-24 hours divided by relative amount of episesamin administered): 72.5%
[2]
  percent absorption of episesamin: 59.7%
[3]
  changes in blood pressure for 24 hours after the single administration: No significant changes
  changes in blood pressure 8 hours after the administration: −6 mmHg
β-oxidation genes
  expression of β-oxidation genes: many genes were expressed in increased amounts
[4]
  gene expression and enzymatic activity of β-oxidation enzymes in the liver compared with sesamin: markedly increased
Fatty acid synthases
  activity for inhibiting fatty acid synthases, sesamin versus episesamin: no difference between sesamin and episesamin
[5]
  transfer into organs relative to sesamin: at least twice as much as that of sesamin

## c1cc2c(cc1[C@H]1OC[C@H]3[C@@H]1CO[C@@H]3c1ccc3c(c1)OCO3)OCO2 [sesamin]
[3]
  changes in blood pressure for 24 hours after the single administration: No significant changes
  changes in blood pressure 8 hours after the administration: −13 mmHg
β-oxidation genes
  expression of β-oxidation genes: hardly rose
Fatty acid synthases
  activity for inhibiting fatty acid synthases, sesamin versus episesamin: no difference between sesamin and episesamin
